Data published in PubChem BioAssay (NCI).
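Step 1: Grow cells in 96-well plates. Step 2: Expose to compound for 48 hours at 5 concentrations. Step 3: Interpolate endpoints linearly; if unreached, use highest concentration. TGI is the concentration that stops growth completely.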

What was measured:
Experiment in all cases: NCI-60 cell line screen, 48 h
[1] = tested on: NCI-H226 lung
[2] = tested on: RXF-631 renal
[3] = tested on: HCC-2998 colon
[4] = tested on: LXFL 529 NSCLC
[5] = tested on: HL-60(TB) leukemia
[6] = tested on: SNB-78 CNS
[7] = tested on: 786-0 renal
[8] = tested on: MOLT-4 leukemia
[9] = tested on: HOP-92 NSCLC
[10] = tested on: OVCAR-8 ovarian
[11] = tested on: LOX IMVI melanoma
[12] = tested on: UACC-62 melanoma
[13] = tested on: MALME-3M melanoma
[14] = tested on: ACHN renal
[15] = tested on: UO-31 renal
[16] = tested on: SN12C renal
[17] = tested on: SF-539 CNS
[18] = tested on: OVCAR-3 ovarian
[19] = tested on: COLO 205 colon
[20] = tested on: SW-620 colon
[21] = tested on: M19-MEL melanoma
[22] = tested on: HOP-62 NSCLC
[23] = tested on: EKVX NSCLC
[24] = tested on: UACC-257 melanoma
[25] = tested on: DMS 114 small cell lung
[26] = tested on: KM12 colon
[27] = tested on: SNB-75 CNS
[28] = tested on: IGROV1 ovarian
[29] = tested on: SF-268 CNS
[30] = tested on: CCRF-CEM leukemia
[31] = tested on: M14 melanoma
[32] = tested on: SK-OV-3 ovarian
[33] = tested on: RPMI-8226 leukemia
[34] = tested on: A549 NSCLC
[35] = tested on: OVCAR-5 ovarian
[36] = tested on: OVCAR-4 ovarian
[37] = tested on: CAKI-1 renal
[38] = tested on: SR leukemia
[39] = tested on: NCI-H522 lung
[40] = tested on: DMS 273 small cell lung
[41] = tested on: HCT-116 colon
[42] = tested on: U251 CNS
[43] = tested on: SK-MEL-28 melanoma
[44] = tested on: SNB-19 CNS
[45] = tested on: SF-295 CNS
[46] = tested on: HCT-15 colon
[47] = tested on: HOP-18 NSCLC
[48] = tested on: DLD-1 colon
[49] = tested on: SK-MEL-2 melanoma
[50] = tested on: NCI-H460 lung
[51] = tested on: HT29 colon
[52] = tested on: TK-10 renal
[53] = tested on: KM20L2 colon
[54] = tested on: NCI-H23 lung
[55] = tested on: SK-MEL-5 melanoma

CCC(=O)O[C@@H]1C2C(OC(C)=O)C34COC(C)([C@@H]3C3C(C[C@]3(C)OC(C)=O)[C@@H](OC(=O)c3ccccc3)C4=O)[C@H](OC(C)=O)[C@@]2(OC(C)=O)C[C@@H]1C (stereo not given in full)
TGI [1]: 41.4 µM
TGI [2]: > 100 µM
TGI [3]: > 100 µM
TGI [4]: > 100 µM
TGI [5]: 30 µM
TGI [6]: 73.4 µM
TGI [7]: 29.2 µM
TGI [8]: > 100 µM
TGI [9]: 40.8 µM
TGI [10]: > 100 µM
TGI [11]: > 100 µM
TGI [12]: > 100 µM
TGI [13]: > 100 µM
TGI [14]: > 100 µM
TGI [15]: > 100 µM
TGI [16]: > 100 µM
TGI [17]: 47.5 µM
TGI [18]: 82.7 µM
TGI [19]: > 100 µM
TGI [20]: > 100 µM
TGI [21]: > 100 µM
TGI [22]: > 100 µM
TGI [23]: > 100 µM
TGI [24]: > 100 µM
TGI [25]: 51.3 µM
TGI [26]: > 100 µM
TGI [27]: 12.4 µM
TGI [28]: 40 µM
TGI [29]: > 100 µM
TGI [30]: 36.8 µM
TGI [31]: > 100 µM
TGI [32]: 83.1 µM
TGI [33]: > 100 µM
TGI [34]: > 100 µM
TGI [35]: > 100 µM
TGI [36]: 44.7 µM
TGI [37]: > 100 µM
TGI [38]: > 100 µM
TGI [39]: > 100 µM
TGI [40]: > 100 µM
TGI [41]: > 100 µM
TGI [42]: 46 µM
TGI [43]: > 100 µM
TGI [44]: 45.8 µM
TGI [45]: 48.7 µM
TGI [46]: 29.5 µM
TGI [47]: > 100 µM
TGI [48]: > 100 µM
TGI [49]: > 100 µM
TGI [50]: > 100 µM
TGI [51]: > 100 µM
TGI [52]: 46 µM
TGI [53]: > 100 µM
TGI [54]: 45 µM
TGI [55]: 51 µM
